Columns and labels:
Test in all cases: AlphaScreen competition
Assay type in all cases: binding
[1] = target: BPTF bromodomain (BPTF BD) (Homo sapiens, UniProt Q12830)
[2] = target: CECR2 bromodomain (CECR2 BD) (Homo sapiens, UniProt Q9BXF3)
[3] = target: T1, BRD9 bromodomain (BRD9 BD) (Homo sapiens, UniProt Q9H8M2)
T1 sequence (Q9H8M2 134-239 limits assumed): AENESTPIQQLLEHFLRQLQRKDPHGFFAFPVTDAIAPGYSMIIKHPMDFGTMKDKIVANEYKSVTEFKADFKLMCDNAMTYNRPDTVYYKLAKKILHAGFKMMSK

| Structure (SMILES) | IC50 [1] [nM] | IC50 [2] [nM] | IC50 [3] [nM] |
| --- | --- | --- | --- |
| CS(=O)(=O)c1nc(NCCCn2cccn2)cc(-c2ccc(OCCCN3CCN(CCCCCCOc4cccc5c4C(=O)N(C4CCC(=O)NC4=O)C5=O)CC3)cc2)n1 (stereo not shown) [compound 8, 4-((6-(4-(3-(4-(6-((3-(1H-Pyrazol-1-yl)propyl)amino)-2-(methylsulfonyl)pyrimidin-4-yl)phenoxy)propyl)piperazin-1-yl)hexyl)oxy)-2-(2,6-dioxopiperidin-3-yl)isoindoline-1,3-dione] | 146 ± 12 | 24 | 844 |
| CN(CCCOc1ccc(-c2cc(NCCCn3cccn3)nc(S(C)(=O)=O)n2)cc1)CCOCCOCCOc1cccc2c1C(=O)N(C1CCC(=O)NC1=O)C2=O (stereo not shown) [compound 10, 4-(2-(2-(2-((3-(4-(6-((3-(1H-Pyrazol-1-yl)propyl)amino)-2-(methylsulfonyl)pyrimidin-4-yl)phenoxy)propyl)(methyl)-amino)ethoxy)ethoxy)ethoxy)-2-(2,6-dioxopiperidin-3-yl)-isoindoline-1,3-dione] | 360 | – | – |
| CS(=O)(=O)c1nc(NCCCn2cccn2)cc(-c2ccc(OCCCN3CCN(CCOCCOCCOc4cccc5c4C(=O)N(C4CCC(=O)NC4=O)C5=O)CC3)cc2)n1 (stereo not shown) [compound 9, 4-(2-(2-(2-(4-(3-(4-(6-((3-(1H-Pyrazol-1-yl)propyl)amino)-2-(methylsulfonyl)pyrimidin-4-yl)phenoxy)propyl)piperazin-1-yl)ethoxy)ethoxy)ethoxy)-2-(2,6-dioxopiperidin-3-yl)-isoindoline-1,3-dione] | 267 ± 8 | 33 | 996 |
